Assay results reported in PMC4890880 (ACS infectious diseases, 2016).
Like-named read-outs stand apart in the source and are kept apart here.

Legend:
[1] = test system: Plasmodium berghei (Pb-Luc) exoerythrocytic-stage parasites; conditions: for normalized signal at concentration 0.000508053 / normalized signal at concentration 0.00152416 / normalized signal at concentration 0.00457247 / normalized signal at concentration 0.0137174 / normalized signal at concentration 0.0411523 / normalized signal at concentration 0.123457 / normalized signal at concentration 0.37037 / normalized signal at concentration 1.11111 / normalized signal at concentration 3.33333 / normalized signal at concentration 10: fraction of control; for IC50: read-out: PbLuc_IC50; for normalised signal at concentration 10 (first series): concentration 10, first series of dose columns; for normalised signal at concentration 10 (second series): concentration 10, second series of dose columns
HepG2-A16-CD81EGFP cells = conditions: for IC50: read-out: Tox_IC50, HepG2 cytotoxicity
[2] = second series of columns (replicate)
[3] = sheet 2nd round, maximal inhibition in dose response
[4] = sheet "2nd round", Broad compounds, dose response top concentration 10
[5] = first series of dose-response columns
[6] = sheet 2nd round, Broad compounds, dose response
[7] = second series of dose-response columns

Cc1noc(C)c1S(=O)(=O)N(C)C[C@@H]1OCCCC[C@@H](C)Oc2ccc(N(C)C)cc2C(=O)N([C@@H](C)CO)C[C@H]1C [BRD-K31367750-001-01-1]
normalized signal at concentration 0.000508053 ([1]; first series of columns): 1.082
normalized signal at concentration 0.00152416 ([1]; first series of columns): 1.078
normalized signal at concentration 0.00457247 ([1]; first series of columns): 1.115
normalized signal at concentration 0.0137174 ([1]; first series of columns): 1.059
normalized signal at concentration 0.0411523 ([1]; first series of columns): 1.054
normalized signal at concentration 0.123457 ([1]; first series of columns): 1.1
normalized signal at concentration 0.37037 ([1]; first series of columns): 1.064
normalized signal at concentration 1.11111 ([1]; first series of columns): 0.9576
normalized signal at concentration 3.33333 ([1]; first series of columns): 1.005
normalized signal at concentration 10 ([1]; first series of columns): 1.057
IC50 ([1]; sheet 2nd round, Pb-Luc exoerythrocytic stage, 10-point dose response, top concentration 10): > 10 µM
normalized signal at concentration 0.000508053 [1, 2]: 1.02
normalized signal at concentration 0.00152416 [1, 2]: 0.9419
normalized signal at concentration 0.00457247 [1, 2]: 0.9058
normalized signal at concentration 0.0137174 [1, 2]: 0.8746
normalized signal at concentration 0.0411523 [1, 2]: 0.9045
normalized signal at concentration 0.123457 [1, 2]: 0.9742
normalized signal at concentration 0.37037 [1, 2]: 0.91
normalized signal at concentration 1.11111 [1, 2]: 0.8518
normalized signal at concentration 3.33333 [1, 2]: 0.8811
normalized signal at concentration 10 [1, 2]: 0.9567
PbLuc_max_inhibition (%) [1, 3]: 15%
IC50 (HepG2-A16-CD81EGFP cells; sheet 2nd round): > 10 µM
Tox_max_inhibition (%) (HepG2-A16-CD81EGFP cells; [3]): 10%

C[C@H]1CCCCO[C@@H](CN(C)S(=O)(=O)c2ccc(F)cc2)[C@@H](C)CN([C@@H](C)CO)C(=O)c2cc(N(C)C)ccc2O1 [BRD-K31467596-001-01-7]
normalised signal at concentration 0.000508053 (first series) [1]: 0.9636
normalised signal at concentration 0.000508053 (second series) [1]: 1.196
normalised signal at concentration 0.00152416 (first series) [1]: 0.9009
normalised signal at concentration 0.00152416 (second series) [1]: 1.029
normalised signal at concentration 0.00457247 (first series) [1]: 1.0859
normalised signal at concentration 0.00457247 (second series) [1]: 1.054
normalised signal at concentration 0.0137174 (first series) [1]: 0.8351
normalised signal at concentration 0.0137174 (second series) [1]: 0.885
normalised signal at concentration 0.0411523 (first series) [1]: 0.8724
normalised signal at concentration 0.0411523 (second series) [1]: 1.048
normalised signal at concentration 0.123457 (first series) [1]: 0.8924
normalised signal at concentration 0.123457 (second series) [1]: 0.8988
normalised signal at concentration 0.37037 (first series) [1]: 0.8075
normalised signal at concentration 0.37037 (second series) [1]: 0.9035
normalised signal at concentration 1.11111 (first series) [1]: 1.0319
normalised signal at concentration 1.11111 (second series) [1]: 1.046
normalised signal at concentration 3.33333 (first series) [1]: 0.9413
normalised signal at concentration 3.33333 (second series) [1]: 0.9885
normalised signal at concentration 10 (first series) [1]: 0.7997
normalised signal at concentration 10 (second series) [1]: 0.6635
IC50 [1, 4]: > 10 µM
PbLuc_max_inhibition (%) ([1]; sheet "2nd round"): 34%
IC50 (HepG2-A16-CD81EGFP cells; sheet "2nd round"): > 10 µM
Tox_max_inhibition (%) (HepG2-A16-CD81EGFP cells; sheet "2nd round"): 19%

COc1ccc(NC(=O)N(C)C[C@H]2Oc3ccc(NC(=O)CCN4CCOCC4)cc3C(=O)N([C@H](C)CO)C[C@@H]2C)cc1 [BRD-K36853881-001-02-5]
normalized signal at concentration 10 [1, 5]: 0.82
normalized signal at concentration 0.000508053 ([1]; first series): 0.84
normalized signal at concentration 0.00152416 ([1]; first series): 0.86
normalized signal at concentration 0.00457247 ([1]; first series): 0.85
normalized signal at concentration 0.0137174 ([1]; first series): 0.75
normalized signal at concentration 0.0411523 ([1]; first series): 0.91
normalized signal at concentration 0.123457 ([1]; first series): 0.88
normalized signal at concentration 0.37037 ([1]; first series): 0.86
normalized signal at concentration 1.11111 ([1]; first series): 0.92
normalized signal at concentration 3.33333 ([1]; first series): 0.69
IC50 [1, 6]: > 10 µM
normalized signal at concentration 10 [1, 7]: 0.77
normalized signal at concentration 0.000508053 ([1]; second series): 1.01
normalized signal at concentration 0.00152416 ([1]; second series): 0.81
normalized signal at concentration 0.00457247 ([1]; second series): 0.82
normalized signal at concentration 0.0137174 ([1]; second series): 0.71
normalized signal at concentration 0.0411523 ([1]; second series): 0.92
normalized signal at concentration 0.123457 ([1]; second series): 0.81
normalized signal at concentration 0.37037 ([1]; second series): 0.84
normalized signal at concentration 1.11111 ([1]; second series): 0.84
normalized signal at concentration 3.33333 ([1]; second series): 0.84
PbLuc_max_inhibition (%) [1, 3]: 31%
IC50 (HepG2-A16-CD81EGFP cells; sheet 2nd round): > 10 µM
Tox_max_inhibition (%) (HepG2-A16-CD81EGFP cells; [3]): 9%

C[C@H]1CCCCO[C@H](CN(C)S(=O)(=O)c2ccc(F)cc2)[C@@H](C)CN([C@@H](C)CO)C(=O)c2cc(N(C)C)ccc2O1 [BRD-K38571893-001-01-9]
normalized signal at concentration 10 [1, 5]: 0.89
normalized signal at concentration 0.000508053 ([1]; first series): 0.97
normalized signal at concentration 0.00152416 ([1]; first series): 0.98
normalized signal at concentration 0.00457247 ([1]; first series): 0.90
normalized signal at concentration 0.0137174 ([1]; first series): 0.78
normalized signal at concentration 0.0411523 ([1]; first series): 1.07
normalized signal at concentration 0.123457 ([1]; first series): 1.18
normalized signal at concentration 0.37037 ([1]; first series): 0.95
normalized signal at concentration 1.11111 ([1]; first series): 0.97
normalized signal at concentration 3.33333 ([1]; first series): 0.87
IC50 [1, 6]: > 10 µM
normalized signal at concentration 10 [1, 7]: 0.80
normalized signal at concentration 0.000508053 ([1]; second series): 1.11
normalized signal at concentration 0.00152416 ([1]; second series): 0.83
normalized signal at concentration 0.00457247 ([1]; second series): 0.98
normalized signal at concentration 0.0137174 ([1]; second series): 1.18
normalized signal at concentration 0.0411523 ([1]; second series): 1.02
normalized signal at concentration 0.123457 ([1]; second series): 1.25
normalized signal at concentration 0.37037 ([1]; second series): 0.98
normalized signal at concentration 1.11111 ([1]; second series): 1.04
normalized signal at concentration 3.33333 ([1]; second series): 0.97
PbLuc_max_inhibition (%) [1, 3]: 22%
IC50 (HepG2-A16-CD81EGFP cells; sheet 2nd round): > 10 µM
Tox_max_inhibition (%) (HepG2-A16-CD81EGFP cells; [3]): -2.16%

C[C@@H]1CN([C@@H](C)CO)C(=O)c2cccc(NC(=O)c3ccc(-c4nccs4)cc3)c2O[C@@H]1CN(C)C(=O)Nc1ccc(C(F)(F)F)cc1 [BRD-K43504903-001-01-1]
normalised signal at concentration 0.000508053 (first series) [1]: 0.8756
normalised signal at concentration 0.000508053 (second series) [1]: 0.7942
normalised signal at concentration 0.00152416 (first series) [1]: 0.8514
normalised signal at concentration 0.00152416 (second series) [1]: 0.7934
normalised signal at concentration 0.00457247 (first series) [1]: 0.8815
normalised signal at concentration 0.00457247 (second series) [1]: 0.6886
normalised signal at concentration 0.0137174 (first series) [1]: 0.7217
normalised signal at concentration 0.0137174 (second series) [1]: 0.708
normalised signal at concentration 0.0411523 (first series) [1]: 0.6989
normalised signal at concentration 0.0411523 (second series) [1]: 0.7835
normalised signal at concentration 0.123457 (first series) [1]: 0.7701
normalised signal at concentration 0.123457 (second series) [1]: 0.8493
normalised signal at concentration 0.37037 (first series) [1]: 0.9239
normalised signal at concentration 0.37037 (second series) [1]: 0.7292
normalised signal at concentration 1.11111 (first series) [1]: 0.7039
normalised signal at concentration 1.11111 (second series) [1]: 0.8779
normalised signal at concentration 3.33333 (first series) [1]: 0.8563
normalised signal at concentration 3.33333 (second series) [1]: 1.012
normalised signal at concentration 10 (first series) [1]: 0.4042
normalised signal at concentration 10 (second series) [1]: 0.5157
IC50 [1, 4]: > 10 µM
PbLuc_max_inhibition (%) ([1]; sheet "2nd round"): 60%
IC50 (HepG2-A16-CD81EGFP cells; sheet "2nd round"): > 10 µM
Tox_max_inhibition (%) (HepG2-A16-CD81EGFP cells; sheet "2nd round"): 21%

C[C@@H]1CCCCO[C@@H](CN(C)S(=O)(=O)c2ccc(F)cc2)[C@H](C)CN([C@@H](C)CO)C(=O)c2cc(N(C)C)ccc2O1 [BRD-K44445002-001-01-6]
normalised signal at concentration 0.000508053 (first series) [1]: 0.8297
normalised signal at concentration 0.000508053 (second series) [1]: 0.9522
normalised signal at concentration 0.00152416 (first series) [1]: 0.9815
normalised signal at concentration 0.00152416 (second series) [1]: 1.174
normalised signal at concentration 0.00457247 (first series) [1]: 0.6933
normalised signal at concentration 0.00457247 (second series) [1]: 0.8769
normalised signal at concentration 0.0137174 (first series) [1]: 0.8541
normalised signal at concentration 0.0137174 (second series) [1]: 1.037
normalised signal at concentration 0.0411523 (first series) [1]: 1.012
normalised signal at concentration 0.0411523 (second series) [1]: 1.038
normalised signal at concentration 0.123457 (first series) [1]: 1.095
normalised signal at concentration 0.123457 (second series) [1]: 0.8137
normalised signal at concentration 0.37037 (first series) [1]: 0.8834
normalised signal at concentration 0.37037 (second series) [1]: 0.9753
normalised signal at concentration 1.11111 (first series) [1]: 1.034
normalised signal at concentration 1.11111 (second series) [1]: 0.8748
normalised signal at concentration 3.33333 (first series) [1]: 0.858
normalised signal at concentration 3.33333 (second series) [1]: 0.7361
normalised signal at concentration 10 (first series) [1]: 0.7308
normalised signal at concentration 10 (second series) [1]: 0.7674
IC50 [1, 4]: > 10 µM
PbLuc_max_inhibition (%) ([1]; sheet "2nd round"): 31%
IC50 (HepG2-A16-CD81EGFP cells; sheet "2nd round"): > 10 µM
Tox_max_inhibition (%) (HepG2-A16-CD81EGFP cells; sheet "2nd round"): 2%
